Data: patent US11834431B2, “Crystals of cyclic amine derivative and pharmaceutical use thereof” (Toray Industries, Inc., priority 2016, dated 2023)
Like-named read-outs stand apart in the source and are kept apart here.

Legend:
[1] = Evaluation of storage stability of Form A crystal, 6 months (HPLC purity, powder X-ray diffraction, TG-DTA); type: physicochemical
[2] = Evaluation of solubility in Japanese Pharmacopoeia test fluids; type: physicochemical; details: thermodynamic from solid
Procedure: Form A crystal of compound (I) (100 mg) was weighed into a borosilicate glass vial, and the 1st fluid for disintegration test/1st fluid for dissolution test of the Japanese Pharmacopoeia 16th edition (pH 1.2)(1 mL) or the 2nd fluid for disintegration test of the Japanese Pharmacopoeia 16th edition (pH 6.8)(1 mL) was added in a temperature and humidity test chamber (Amefrec Co., Ltd.; NO DOORα) adjusted to 37° C., followed by stirring. Form B crystal of ethane disulfonate of compound (I) (10 mg) was weighed into a borosilicate glass vial, and the 2nd fluid for disintegration test of the Japanese Pharmacopoeia 16th edition (pH 6.8) (0.1 mL) was added in a temperature and humidity test chamber (Amefrec Co., Ltd.; NO DOORα) adjusted to 37° C., followed by stirring. After 30 minutes, the inside of each vial was visually checked, and it was confirmed that each crystal was completely dissolved.

fibromyalgia model rats = experiment: Analgesic effect on allodynia in fibromyalgia model rats (von Frey, 50% response threshold); type: in vivo, rat; details: measured 3 hours after administration, Day 7, compared to negative control group
Procedure: The analgesic effect of the crystal of compound (I) or the pharmacologically acceptable salt thereof against fibromyalgia syndrome was evaluated using fibromyalgia model rats (Sluka et al., Journal of Pharmacology and Experimental Therapeutics, 2002, vol. 302, pp. 1146-1150; Nagakura et al., Pain, 2009, vol. 146, pp. 26-33; Sluka et al., Pain, 2009, vol. 146, pp. 3-4). Form A crystal of compound (I) was used as a crystal of compound (I) or the pharmacologically acceptable salt thereof for evaluation.
The above model rats were prepared as follows. In experiments, 6-to 7-week-old SD male rats were used for 5 or 6 cases per group. 100 μL of acidic physiological saline adjusted to pH 4.0 was administered twice to the gastrocnemius muscle of the right hind paw of each rat (the day of the administration of acidic physiological saline was defined as Day 1 after the start of the experiment, and single dose administrations were carried out on Days 1 and 6 after the start of the experiment) under inhalation anesthesia with isoflurane. The thus prepared group was determined to be an acidic physiological saline group. As a control for the model, a group treated with a physiological saline instead of an acidic physiological saline was determined to be a physiological saline group.
Allodynia observed in fibromyalgia model rats was measured using a von Frey filaments according to a method described in a known publication (Chaplan et al., Journal of Neuroscience Methods, 1994, vol. 53, pp. 55-63) and a 50% response threshold (g) was determined. On Day 7 after the start of the experiment, allodynia was measured 3 hours after oral administration of Form A crystal of compound (I), and the analgesic effect was evaluated. Allodynia of the acidic physiological saline group was measured before oral administration of Form A crystal of compound (I). […] Allodynia was measured 3 hours after the oral administration of the crystal of compound (I), and the analgesic effect was evaluated. […]

[3] = Evaluation of storage stability, Form A crystal versus amorphous matter (HPLC purity); type: physicochemical; details: for Chemical purity, After storage / Decomposition product increased by not less than 0.15% after storage / Optical purity, After storage: airtight state, listed as Form A
[4] = Storage test 1: 25° C., relative humidity 60%, open state
[5] = Storage test 2: 40° C., relative humidity 75%, airtight state
[6] = Storage test 3: 60° C., airtight state
[7] = any of storage tests 1 to 3, 6 months
[8] = 40° C., relative humidity 75%, 8 weeks

SMILES: CN(C)C1CCN(C(=O)C[C@H](O)c2nccn2C)CC1 [Form A crystal, (S)-1-(4-(dimethylamino)piperidin-1-yl)-3-hydroxy-3-(1-methyl-1H-imidazol-2-yl)propan-1-one]
- Chemical purity, After 6 months [1, 4]: 99.8%
- Crystal form after 6 months [1, 4]: Form A
- Decomposition product increased by not less than 0.15% after 6 months [1, 4]: None
- Optical purity, After 6 months [1, 4]: 99.0 % ee
- Chemical purity, After 6 months [1, 5]: 99.8%
- Crystal form after 6 months [1, 5]: Form A
- Decomposition product increased by not less than 0.15% after 6 months [1, 5]: None
- Optical purity, After 6 months [1, 5]: 99.0 % ee
- Chemical purity, After 6 months [1, 6]: 99.8%
- Crystal form after 6 months [1, 6]: Form A
- Decomposition product increased by not less than 0.15% after 6 months [1, 6]: None
- Optical purity, After 6 months [1, 6]: 99.0 % ee
- change in the crystal form on storage [1, 7]: no change was observed
- change of purity on storage [1, 7]: did not change
- Chemical purity, Initial value ([1]; before storage): 99.8%
- Optical purity, Initial value ([1]; before storage): 98.8 % ee
- solubility at 30 min ([2]; Japanese Pharmacopoeia test fluids, text summary of Table 5, 37° C., read-out: solubilities): ≥ 100 mg/mL
- solubility at 30 min ([2]; simulated gastric fluid, 1st fluid for disintegration test/1st fluid for dissolution test of the Japanese Pharmacopoeia 16th edition (pH 1.2), 37° C., 30 minutes, read-out: Solubility (37° C.)): > 100 mg/mL
- improvement of allodynia (50% response threshold) (fibromyalgia model rats; oral 1 mg/kg): significant improvement
- improvement of allodynia (50% response threshold) (fibromyalgia model rats; oral 10 mg/kg): significant improvement
- Chemical purity, After storage [3, 8]: 99.9%
- Decomposition product increased by not less than 0.15% after storage [3, 8]: None
- Optical purity, After storage [3, 8]: 98.8 % ee
- Chemical purity, After storage ([3]; 60° C., 4 weeks): 99.8%
- Decomposition product increased by not less than 0.15% after storage ([3]; 60° C., 4 weeks): None
- Optical purity, After storage ([3]; 60° C., 4 weeks): 98.8 % ee
- Chemical purity, Initial value ([3]; before storage): 99.9%
- Optical purity, Initial value ([3]; before storage): 98.6 % ee
